# Biological target: Recombinant Human Poly(ADP-Ribose) Polymerase (PARP), PARP-1 (Homo sapiens (Human), UniProt P09874)
# Conditions: read-out: PARP-1 (Ki); Table 1; text calls the values EC50s
# Experimental: Nicotinamide[2,5′,8-3H]adenine dinucleotide and strepavidin SPA beads were purchased from Amersham Biosiences. […] NAD^+, histone, aminobenzamide, 3-amino benzamide and Calf Thymus DNA (dcDNA) were purchased from Sigma. Stem loop oligonucleotide containing MCAT sequence was obtained from Qiagen. The oligos were dissolved to 1 mM in annealing buffer containing 10 mM Tris HCl pH 7.5, 1 mM EDTA, and 50 mM NaCl, incubated for 5 minutes at 95° C., and annealed at 45° C. for 45 minutes. […] Biotinylated histone H1 was prepared by treating the protein with Sulfo-NHS-LC-Biotin from Pierce. The biotinylation reaction was conducted by slowly and intermittently adding 3 equivalents of 10 mM Sulfo-NHS-LC-Biotin to 100 μM Histone H1 in phosphate-buffered saline, pH 7.5, at 4° C. with gentle vortexing over 1 minute followed by subsequent 4° C. incubation for 1 hour. Streptavidin coated (FlashPlate Plus) microplates were purchased from Perkin Elmer.
# PARP1 assay was conducted in PARP assay buffer containing 50 mM Tris pH 8.0, 1 mM DTT, 4 mM MgCl2. […] Auto reactions utilizing SPA bead-based detection were carried out in 100 μL volumes in white 96 well plates.
# Chain of Recombinant Human Poly(ADP-Ribose) Polymerase (PARP), PARP-1 (P09874 whole entry): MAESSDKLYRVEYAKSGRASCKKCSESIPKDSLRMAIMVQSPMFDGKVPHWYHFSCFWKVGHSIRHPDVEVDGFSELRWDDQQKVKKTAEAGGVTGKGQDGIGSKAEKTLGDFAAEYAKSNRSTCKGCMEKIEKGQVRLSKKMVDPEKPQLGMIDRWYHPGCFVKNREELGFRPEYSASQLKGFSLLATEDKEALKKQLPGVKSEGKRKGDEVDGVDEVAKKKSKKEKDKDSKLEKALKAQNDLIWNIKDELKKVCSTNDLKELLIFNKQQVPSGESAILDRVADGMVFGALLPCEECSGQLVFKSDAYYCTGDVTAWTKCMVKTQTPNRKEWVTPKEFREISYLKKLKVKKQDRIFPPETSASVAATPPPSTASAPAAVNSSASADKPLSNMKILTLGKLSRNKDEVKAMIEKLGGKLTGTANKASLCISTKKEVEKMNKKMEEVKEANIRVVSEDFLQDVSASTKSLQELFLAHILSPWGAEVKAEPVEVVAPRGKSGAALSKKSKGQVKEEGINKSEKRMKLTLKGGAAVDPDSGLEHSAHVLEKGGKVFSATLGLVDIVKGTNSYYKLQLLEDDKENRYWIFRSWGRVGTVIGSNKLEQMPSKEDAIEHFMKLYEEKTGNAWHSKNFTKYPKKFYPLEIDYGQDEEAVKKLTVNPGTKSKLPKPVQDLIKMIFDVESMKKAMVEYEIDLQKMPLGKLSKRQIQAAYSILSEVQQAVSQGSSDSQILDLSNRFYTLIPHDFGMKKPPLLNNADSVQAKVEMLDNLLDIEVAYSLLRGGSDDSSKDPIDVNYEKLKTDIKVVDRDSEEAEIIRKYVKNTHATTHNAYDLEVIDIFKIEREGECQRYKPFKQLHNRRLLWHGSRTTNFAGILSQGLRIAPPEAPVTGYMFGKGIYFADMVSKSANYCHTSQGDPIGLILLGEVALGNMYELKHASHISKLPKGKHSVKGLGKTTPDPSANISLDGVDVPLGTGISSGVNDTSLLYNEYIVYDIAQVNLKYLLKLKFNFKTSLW
row,SMILES,Ki
1,"O=C(Nc1cccc(Cc2n[nH]c(=O)c3c2CCCC3)c1)c1ccsc1 [Example 197, N-(3-((4-oxo-3,4,5,6,7,8-hexahydrophthalazin-1-yl)methyl)phenyl)thiophene-3-carboxamide]",146 nM
2,"O=C(Nc1cccc(Cc2n[nH]c(=O)c3c2CCCC3)c1)c1ccco1 [Example 193, N-(3-((4-oxo-3,4,5,6,7,8-hexahydrophthalazin-1-yl)methyl)phenyl)-2-furamide]",100 nM
3,CCCN(CCC)[C@@H](C)C(=O)Nc1cccc(Cc2n[nH]c(=O)c3c2CCCC3)c1 [Example 158],1590 nM
4,"O=C(CCCOc1ccccc1)Nc1cccc(Cc2n[nH]c(=O)c3c2CCCC3)c1 [Example 165, N-(3-((4-oxo-3,4,5,6,7,8-hexahydrophthalazin-1-yl)methyl)phenyl)-4-phenoxybutanamide]",14 nM
5,"CCN1CCN(C(=O)c2cccc(Cc3n[nH]c(=O)c4c3CCCC4)c2)CC1 [Example 436, 4-(3-((4-ethylpiperazin-1-yl)carbonyl)benzyl)-5,6,7,8-tetrahydrophthalazin-1(2H)-one]",10 nM
6,CC(=O)Nc1cccc(-c2cc(Cc3n[nH]c(=O)c4c3CCCC4)ccc2F)c1 [Example 248],2 nM
7,"CN(C)CCNC(=O)c1cccc(Cc2n[nH]c(=O)c3c2CCCC3)c1 [Example 313, N-(2-(dimethylamino)ethyl)-3-((4-oxo-3,4,5,6,7,8-hexahydrophthalazin-1-yl)methyl)benzamide]",95 nM
8,"CC(Cc1n[nH]c(=O)c2c1CCCC2)c1ccc(F)c(-c2cccc(C(N)=O)c2)c1 (stereo not drawn) [Example 295, 2′-fluoro-5′-(1-methyl-2-(4-oxo-3,4,5,6,7,8-hexahydrophthalazin-1-yl)ethyl)-1,1′-biphenyl-3-carboxamide]",912 nM
9,"O=C(Nc1cccc(Cc2n[nH]c(=O)c3c2CCCC3)c1)c1ccccc1I [Example 245, 2-iodo-N-(3-((4-oxo-3,4,5,6,7,8-hexahydrophthalazin-1-yl)methyl)phenyl)benzamide]",963 nM
10,"O=c1[nH]nc(Cc2ccc(F)c(N3CCCS3(=O)=O)c2)c2c1CCCC2 [Example 305, 4-(3-(1,1-dioxidoisothiazolidin-2-yl)-4-fluorobenzyl)-5,6,7,8-tetrahydrophthalazin-1(2H)-one]",3 nM
11,CN(C)CCC(=O)Nc1cccc(Cc2n[nH]c(=O)c3c2CCCC3)c1 [Example 221],1540 nM
12,"O=C(Nc1cccc(Cc2n[nH]c(=O)c3c2CCCC3)c1)c1cc(F)ccc1F [Example 183, 2,5-difluoro-N-(3-((4-oxo-3,4,5,6,7,8-hexahydrophthalazin-1-yl)methyl)phenyl)benzamide]",166 nM
13,"O=C(CCS(=O)(=O)c1ccccc1)Nc1cccc(Cc2n[nH]c(=O)c3c2CCCC3)c1 [Example 175, N-(3-((4-oxo-3,4,5,6,7,8-hexahydrophthalazin-1-yl)methyl)phenyl)-3-(phenylsulfonyl)propanamide]",21 nM
14,"O=C(Nc1cccc(Cc2n[nH]c(=O)c3c2CCCC3)c1)C1(c2ccccc2)CC1 [Example 145, N-(3-((4-oxo-3,4,5,6,7,8-hexahydrophthalazin-1-yl)methyl)phenyl)-1-phenylcyclopropanecarboxamide]",57 nM
15,"O=C(CCCc1cccs1)Nc1cccc(Cc2n[nH]c(=O)c3c2CCCC3)c1 [Example 154, N-(3-((4-oxo-3,4,5,6,7,8-hexahydrophthalazin-1-yl)methyl)phenyl)-4-thien-2-ylbutanamide]",56 nM
16,"O=C(Nc1nccs1)c1cccc(Cc2n[nH]c(=O)c3c2CCCC3)c1 [Example 319, 3-((4-oxo-3,4,5,6,7,8-hexahydrophthalazin-1-yl)methyl)-N-1,3-thiazol-2-ylbenzamide]",94 nM
17,"O=C1CC[C@@H](C(=O)Nc2cccc(Cc3n[nH]c(=O)c4c3CCCC4)c2)N1 [Example 139, 5-oxo-N-(3-((4-oxo-3,4,5,6,7,8-hexahydrophthalazin-1-yl)methyl)phenyl)-L-prolinamide]",206 nM
18,"CN1CCN(CCNC(=O)c2cccc(Cc3n[nH]c(=O)c4c3CCCC4)c2)CC1 [Example 59, N-(2-(4-methylpiperazin-1-yl)ethyl)-3-((4-oxo-3,4,5,6,7,8-hexahydrophthalazin-1-yl)methyl)benzamide]",24 nM
19,"O=C1C2CCCCC2C(=O)N1c1cc(Cc2n[nH]c(=O)c3c2CCCC3)ccc1F (stereo not drawn) [Example 298, 2-(2-fluoro-5-((4-oxo-3,4,5,6,7,8-hexahydrophthalazin-1-yl)methyl)phenyl)hexahydro-1H-isoindole-1,3(2H)-dione]",2 nM
20,"O=C1CCCN1c1cccc(Cc2n[nH]c(=O)c3c2CCCC3)c1 [Example 100, 4-(3-(2-oxopyrrolidin-1-yl)benzyl)-5,6,7,8-tetrahydrophthalazin-1(2H)-one]",39 nM
21,"O=C1C2CC2C(=O)N1c1cc(Cc2n[nH]c(=O)c3c2CCCC3)ccc1F (stereo not drawn) [Example 291, 3-(2-fluoro-5-((4-oxo-3,4,5,6,7,8-hexahydrophthalazin-1-yl)methyl)phenyl)-3-azabicyclo(3.1.0)hexane-2,4-dione]",0.7 nM
22,"O=C(NCCCN1CCCCC1)c1cccc(Cc2n[nH]c(=O)c3c2CCCC3)c1 [Example 316, 3-((4-oxo-3,4,5,6,7,8-hexahydrophthalazin-1-yl)methyl)-N-(3-piperidin-1-ylpropyl)benzamide]",34 nM
23,"CC(C)(C)OC(=O)N1CCN(C(=O)OCc2ccccc2)CC1Cc1n[nH]c(=O)c2c1CCCC2 (stereo not drawn) [Example 258, 4-benzyl 1-tert-butyl 2-((4-oxo-3,4,5,6,7,8-hexahydrophthalazin-1-yl)methyl)piperazine-1,4-dicarboxylate]",1770 nM

# Other lines, results leading:
row,Ki,SMILES
1,1.6 nM,"Cc1cncc(N2CCN(C(=O)c3cc(Cc4n[nH]c(=O)c5c4CCCC5)ccc3F)CC2)n1 [Example 499, 4-(4-fluoro-3-{[4-(6-methylpyrazin-2-yl)piperazin-1-yl]carbonyl}benzyl)-5,6,7,8-tetrahydrophthalazin-1(2H)-one]"
2,5 nM,"CN(C(=O)c1cc(Cc2n[nH]c(=O)c3c2NCCC3)ccc1F)C1CCNCC1 [Example 706, 2-fluoro-N-methyl-5-[(5-oxo-1,2,3,4,5,6-hexahydropyrido[2,3-d]pyridazin-8-yl)methyl]-N-piperidin-4-ylbenzamide]"
3,1.4 nM,"O=C(c1ccncc1)N1CCN(C(=O)c2cc(Cc3n[nH]c(=O)c4c3NCCC4)ccc2F)CC1 [Example 660, 8-{4-fluoro-3-[(4-isonicotinoylpiperazin-1-yl)carbonyl]benzyl}-2,3,4,6-tetrahydropyrido[2,3-d]pyridazin-5(1H)-one]"
4,0.9 nM,"O=C(c1cc(Cc2n[nH]c(=O)c3c2NCCC3)ccc1F)N1CCN(c2ncncn2)CC1 [Example 632, 8-(4-fluoro-3-{[4-(1,3,5-triazin-2-yl)piperazin-1-yl]carbonyl}benzyl)-2,3,4,6-tetrahydropyrido[2,3-d]pyridazin-5(1H)-one]"
5,1 nM,"O=C(c1ccc2[nH]cnc2c1)N1CCN(C(=O)c2cc(Cc3n[nH]c(=O)c4c3NCCC4)ccc2F)CC1 [Example 663, 8-(3-{[4-(1H-benzimidazol-5-ylcarbonyl)piperazin-1-yl]carbonyl}-4-fluorobenzyl)-2,3,4,6-tetrahydropyrido[2,3-d]pyridazin-5(1H)-one]"
6,1.1 nM,"CCN(CC)C(=O)N1CCN(C(=O)c2cc(Cc3n[nH]c(=O)c4c3NCCC4)ccc2F)CC1 [Example 557, N,N-diethyl-4-{2-fluoro-5-[(5-oxo-1,2,3,4,5,6-hexahydropyrido[2,3-d]pyridazin-8-yl)methyl]benzoyl}piperazine-1-carboxamide]"
7,4 nM,"O=CN1CCN(C(=O)c2cccc(Cc3n[nH]c(=O)c4c3CCCC4)c2)CC1 [Example 437, 4-(3-((4-oxo-3,4,5,6,7,8-hexahydrophthalazin-1-yl)methyl)benzoyl)piperazine-1-carbaldehyde]"
8,71 nM,"O=C(Nc1ccc(F)cc1F)Nc1cc(Cc2n[nH]c(=O)c3c2CCCC3)ccc1F [Example 541, N-(2,4-difluorophenyl)-N′-{2-fluoro-5-[(4-oxo-3,4,5,6,7,8-hexahydrophthalazin-1-yl)methyl]phenyl}urea]"
9,1.1 nM,"COc1ccc(C(=O)N2CCN(C(=O)c3cc(Cc4n[nH]c(=O)c5c4NCCC5)ccc3F)CC2)cc1 [Example 601, 8-(4-fluoro-3-{[4-(4-methoxybenzoyl)piperazin-1-yl]carbonyl}benzyl)-2,3,4,6-tetrahydropyrido[2,3-d]pyridazin-5(1H)-one]"
10,154 nM,"COc1cc(NC(=O)c2cccc(Cc3n[nH]c(=O)c4c3CCCC4)c2)ccc1C [Example 352, N-(3-methoxy-4-methylphenyl)-3-((4-oxo-3,4,5,6,7,8-hexahydrophthalazin-1-yl)methyl)benzamide]"
11,53 nM,"O=C(NC1CCC(O)CC1)c1cc(Cc2n[nH]c(=O)c3c2NCCC3)ccc1F (stereo not drawn) [Example 709, 2-fluoro-N-(4-hydroxycyclohexyl)-5-[(5-oxo-1,2,3,4,5,6-hexahydropyrido[2,3-d]pyridazin-8-yl)methyl]benzamide]"
12,2 nM,"CCN(CC)C(=O)N1CCN(C(=O)c2cc(Cc3n[nH]c(=O)c4c3CCCC4)ccc2F)CC1 [Example 530, N,N-diethyl-4-{2-fluoro-5-[(4-oxo-3,4,5,6,7,8-hexahydrophthalazin-1-yl)methyl]benzoyl}piperazine-1-carboxamide]"
13,1.4 nM,"O=C(c1cnccn1)N1CCN(C(=O)c2cc(Cc3n[nH]c(=O)c4c3CCCC4)ccc2F)CC1 [Example 679, 4-(4-fluoro-3-{[4-(pyrazin-2-ylcarbonyl)piperazin-1-yl]carbonyl}benzyl)-5,6,7,8-tetrahydrophthalazin-1(2H)-one]"
14,4 nM,"O=C(c1cc(Cc2n[nH]c(=O)c3c2NCCC3)ccc1F)N1CCN(C(=O)N2CCCCC2)CC1 [Example 526, 8-(4-fluoro-3-{[4-(piperidin-1-ylcarbonyl)piperazin-1-yl]carbonyl}benzyl)-2,3,4,6-tetrahydropyrido[2,3-d]pyridazin-5(1H)-one]"

# Same assay, conditions: read-out: PARP-1 (Ki); Table 3; H analogs versus para-F analogs
row,Ki,SMILES
1,27 nM,CCN(CC)C(=O)C1CCCN(C(=O)c2cccc(Cc3n[nH]c(=O)c4c3CCCC4)c2)C1 (stereo not drawn)
2,19 nM,NC(=O)C1CCCN(C(=O)c2cccc(Cc3n[nH]c(=O)c4c3CCCC4)c2)C1 (stereo not drawn) [drawing 44]

# Reference: patent US9283222B2 (priority 2006, dated 2016)
